# Data from patent US20070155713A1, “Nitrogen-containing heterocyclic compounds and use thereof” (priority 2003, published 2007).
# Counter-ions that a name gives are not always drawn.
# Target: T1, human CCR5 (Homo sapiens, UniProt P51681)
# T1 construct: expressed in transfected cells; host or cells: CHO-dhfr(-)
# Assay: Inhibition test on the binding of RANTES to CCR5 (RANTES-induced transient increase of Ca ion) in CCR5/CHO cells
# Format: cell-based
# Conditions: human CCR5 stably over-expressing CHO cell; recombinant human RANTES 10 nM; intracellular Ca2+ transient increase (Fura-2AM)
# Method: (1) Isolation of Human CCR5 Gene Human placental cDNA was prepared using Marathon cDNA amplification kit (Clontech). PCR primers hCCR5Xbal-F1: Using the human placental cDNA as the template and using Ex Taq (Takara), PCR reaction (2 minutes at 95° C. {cube root}(30 seconds at 95° C., 45 seconds at 60° C., 1 minute at 72° C.)×35 times) was carried out. The thus amplified PCR product was subjected to a 1% agarose gel electrophoresis, purified using QIAquick Gel Extraction Kit (QUIAGEN) and then digested with a restriction enzyme XbaI. The digested fragments were ligated to an expression vector pEF-BOS-bsr using DNA Ligation Kit Ver. 2 (Takara) and transformed into Escherichia coli DH5α. By preparing the resulting plasmid pEF-BOS-bsr/hCCR5, its DNA sequence was verified. CHO-dhfr(−) was cultured using Ham's F-12 (containing fetal bovine serum (10%), penicillin (50 U/ml) and streptomycin ([…])). […] Transient increase in the intracellular Ca^2+ concentration induced by the human RANTES was measured using a Ca^2+ detector for 96 well use (Hamamatsu Photonics), and inhibition ratio (%) of the test compound was calculated by the following calculation formula. • Inhibition ratio=(Ec−Ea)/Ec×100 • Ec: measured value of Ca^2+ transient increase by RANTES • Ea: measured value of Ca^2+ transient increase by RANTES when a test compound was added.
# T1 sequence (P51681 whole entry): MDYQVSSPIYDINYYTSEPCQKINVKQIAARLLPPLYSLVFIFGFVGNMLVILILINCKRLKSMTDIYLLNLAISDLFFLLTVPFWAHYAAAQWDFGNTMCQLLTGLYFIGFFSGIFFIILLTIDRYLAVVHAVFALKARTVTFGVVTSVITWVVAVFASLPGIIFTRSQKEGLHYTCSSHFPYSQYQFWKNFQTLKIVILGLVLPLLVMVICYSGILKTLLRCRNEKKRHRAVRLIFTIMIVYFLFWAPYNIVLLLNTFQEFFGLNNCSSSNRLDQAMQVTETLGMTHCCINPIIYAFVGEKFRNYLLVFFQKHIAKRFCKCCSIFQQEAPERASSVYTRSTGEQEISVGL
smiles,measurement,value
"CCCCN1C(=O)[C@H](CC2CCCCC2)NC(=O)C12CCN(Cc1ccccc1)CC2C (stereo partly drawn) [Example 1, (3S)-9-benzyl-1-butyl-3-(cyclohexylmethyl)-7-methyl-1,4,9-triazaspiro[5.5]undecane-2,5-dione hydrochloride]",IC50,760 nM
